Data set [1] in a line: Solubility of CIPC (maximum concentration obtained in solvents). In kind it is physicochemical. The conditions noted are these: in terpenes and/or terpene oils, clear solutions, at room temperature or even as low as 0° C. As for the experimental part:
Moreover, CIPC is sparingly soluble in conventional solvents, and maximum CIPC concentrations of the order of 30% (weight/volume) are generally obtained. At best, concentrations of the order of about 54% at 180° C. have been obtained. This low solubility therefore implies the use of large quantities of solvent and/or of formulation in order to obtain the required quantities of active formula. Now, it is sought in general to limit the use of these solvents because of their own toxicity and/or of the danger involved in using them, in particular because of their low boiling points which cause high risks of inflammability.
It has now been discovered, and that is one of the subjects of the present invention, that terpenes and/or terpene oils have a high CIPC-dissolving power. In particular, the use of such terpenes and/or terpene oils makes it possible to obtain clear CIPC solutions and to reach CIPC concentrations greater than 50% by weight of CIPC relative to the total volume of the solution, at room temperature, or even temperatures as low as 0° C. Consequently, the formulations of the present invention make it possible to limit the quantity of formulated product to be used.

For data set [2] the following is noted: cited from earlier work.

The structures appear in SMILES notation.

With `CC(C)OC(=O)Nc1cccc(Cl)c1` [CIPC, isopropyl (3-chlorophenyl)carbamate], the CIPC concentration reached result in data set [1] is reported as “greater than 50 % by weight of CIPC relative to the total volume of the solution”. Moreover, the “CIPC concentration obtained at best” value in data set [2] (conventional solvents, at 180° C.) is reported as “about 54%”. Moreover, in data set [2] (in conventional solvents), the “maximum CIPC concentration” value is recorded as ~30 % (weight/volume).

The values are drawn from US20140287925A1, “SOLUTIONS OF CIPC AND OF A TERPENE OR OF A TERPENE OIL AND THEIR USES FOR THE ANTIGERMINATIVE TREATMENT OF BULBS OR TUBERS” (priority 2003, published 2014).
